Results from patent publication US10300155B2, “Alpha-synuclein ligands” (Washington University, priority 2015, dated 2019).
Several values for one entry are separate records, joined by “and”; a condition that tells them apart may be missing. Equal values may be shown once. Read-outs that look alike come from different tables or passages of the source.

Experiments:
[1] = target: T1, α-synuclein fibrils (Homo sapiens, UniProt P37840); assay: ThT competitive assay for α-synuclein fibrils (Table 1); type: binding; details: for EC50: α-synuclein fibrils
T1 construct: made in house; host or cells: E. coli BL21(DE3)RIL
Method: Upon binding to amyloid fibrils, a peak at approximately 440 nm becomes dominant with the fluorescent emission maximum shifted to 480 nm. This is accompanied by a strong enhancement of the fluorescence.
α-Synuclein recombinant protein was produced in E. coli. […] Freshly transformed BL21 colonies were inoculated into 2 L baffled flasks containing 250 mL sterilized TB (1.2% bactotryptone, 2.4% yeast extract, 0.4% glycerol, 0.17 M KH2PO4, 0.72 M K2HPO4) with 50 μg/ml ampicillin, and incubated overnight at 37° C. with shaking.
To determine the concentration of fibrils, the reaction mixture (100 μL) was centrifuged at 18,000×g for 10 minutes to separate fibrils from monomer. The α-synuclein monomer and other soluble proteins in the supernatant were removed, and the fibril pellet was resuspended in 100 μL solution of Tris-HCl (20 mM) and NaCl (100 mM). This fibril suspension was used in a bicinchoninic acid (BCA) protein assay along with a bovine serum albumin (BSA) standard curve to determine the concentration of fibrils in the 72 hour fibril reaction mixture.
To prepare the fibrils for performing binding assays, the fibril reaction mixture prepared above was centrifuged at 18,000×g for 10 minutes.
Once the ThT-α-synuclein saturation binding curve and dissociation constant (Kd) were determined the competitive assay for determining the binding affinity of various test compounds was conducted. […] The mixture was incubated at room temperature for 60 minutes on the shaking plate. The fluorescent intensity for each cell was measured by the fluorescence reader at λex and λem. The Ki value for each compound was calculated by the corresponding inhibition curve.
The Ki values were derived from the EC50 values using the Cheng-Prusoff equation: Ki=EC50/(1+[radioligand]/Kd). See FIGS. 17.1-31.2 for the inhibition curves for each compound in the ThioT competitive binding assay.

[2] = target: Aβ fibrils (Homo sapiens, UniProt P05067); assay: ThT competitive assay for Aβ fibrils (Table 2); type: binding; set-up: made in house; host or cells: E. coli; details: for EC50: Aβ fibrils
Method: […] recombinant protein was produced in E. coli. Additional preparation was performed in a similar fashion to Example 115. […] The inhibitor that binds with highest affinity to Aβ fibrils has the lowest dissociation constant (Ki).

[3] = target: tau fibrils (Homo sapiens, UniProt P10636); assay: ThT competitive assay for tau fibrils (Table 3); type: binding; set-up: made in house; host or cells: E. coli; details: for EC50: tau fibrils
Method: Tau fibril recombinant protein was produced in E. coli. Additional preparation was performed in a similar fashion to Example 115.

[4] = target: T1, α-synuclein fibrils; assay: Radioligand binding assay with α-synuclein fibrils (Table 8)
[5] = target: AD Tissue; assay: Radioligand saturation binding, AD postmortem brain tissue; set-up: species or system human; details: brain tissue homogenate
[6] = target: T1, α-synuclein fibrils; assay: Thioflavin T competition assay (Example 130, Table 9), α-synuclein fibrils; type: binding
Method: Freshly transformed BL21 colonies were inoculated into 2 L baffled flasks containing 250 ml sterilized TB (1.2% bactotryptone, 2.4% yeast extract, 0.4% glycerol, 0.17 M KH2PO4, 0.72 M K2HPO4) with 50 μg/ml ampicillin, and incubated overnight at 37° C. with shaking.
Competition assays used a fixed concentration of α-syn, Aβ, or tau fibrils (1 μM), consisting of 3 μM, 50 nM and 4 μM of ThioflavinT respectively. […] To optimize the determination of selectivity, assays for all three fibril species were set up in parallel using a common set of intermediate compound dilutions for each analog. Reactions were incubated at room temperature for 1.5 h before quantifying bound ligand as described above for the saturation binding assay. […] All data points were performed in triplicate. Nonspecific fluorescence was measured in parallel reactions containing ThioT plus each concentration of competitor but no fibrils, and these measurements were subtracted from the reactions with fibrils to yield fibril-specific fluorescence. Data were analyzed using Graphpad. Prism software (version 4.0) to obtain EC50 values by fitting the data to the equation Y=bottom+(top-bottom)/(1+10^(x−log EC50)).

[7] = average, read-out: Ki (nM) α-syn (avg)
[8] = individual determinations, read-out: Ki (nM) α-syn
[9] = average, read-out: EC50 (nM) EC50 (avg)
[10] = individual determinations, read-out: EC50 (nM) EC50
[11] = average, read-out: EC50(nM) EC50 (avg)
[12] = individual determinations, read-out: EC50(nM) EC50
[13] = average, read-out: Ki (nM) Aβ (avg)
[14] = individual determinations, read-out: Ki (nM) Aβ
[15] = average, read-out: Ki (nM) Tau (avg)
[16] = individual determinations, read-out: Ki (nM) Tau
[17] = average, read-out: EC50m (nM) EC50 (avg)
[18] = individual determinations, read-out: EC50m (nM) EC50

Chain of Aβ fibrils (P05067 672-713 limits assumed): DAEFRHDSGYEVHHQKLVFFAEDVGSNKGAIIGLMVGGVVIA
Chain of tau fibrils (P10636 560-692 limits assumed): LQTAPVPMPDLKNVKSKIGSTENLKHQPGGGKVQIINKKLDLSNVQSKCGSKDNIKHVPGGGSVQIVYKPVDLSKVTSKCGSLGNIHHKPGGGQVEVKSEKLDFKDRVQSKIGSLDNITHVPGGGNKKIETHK

Row | Compound | Ki [1, 7] | Ki [1, 8] | EC50 [1, 9] | EC50 [1, 10] | EC50 [2, 11] | EC50 [2, 12] | Ki [2, 13] | Ki [2, 14] | Ki [3, 15] | Ki [3, 16] | EC50 [3, 17] | EC50 [3, 18] | Kd [4] | Kd [5] | EC50 ([6]; average, read-out: α-synuclein EC50 (avg)) | Ki ([6]; average, read-out: α-synuclein Ki (avg)) | EC50 ([6]; individual determinations, read-out: α-synuclein EC50) | Ki ([6]; individual determinations, read-out: α-synuclein Ki)
1 | COc1ccc(/C=C/c2ccco2)cc1 [TZ-34-24] | 345 nM | 610 nM and 163 nM and 262 nM | 902 nM | 1590 nM and 426 nM and 686 nM | 2280 nM | 2560 nM and 2000 nM | 888 nM | 961 nM and 815 nM |  |  |  |  |  |  |  |  |  | 
2 | COc1ccc(/C=C/c2cccs2)cc1 [TZ-34-26] | 176 nM | 51.3 nM and 283 nM and 126 nM and 291 nM and 82 nM and 221 nM | 460 nM | 134 nM and 739 nM and 329 nM and 762 nM and 214 nM and 580 nM | 6660 nM | 6660 nM | 2500 nM | 2500 nM | 1370 nM | 1370 nM | 3350 nM | 3350 nM |  |  |  |  |  | 
3 | COc1ccc(/C=C/c2ccsc2)cc1 [TZ-34-28] | 172 nM | 43.1 nM and 167 nM and 113 nM and 104 nM and 256 nM and 347 nM | 449 nM | 113 nM and 437 nM and 297 nM and 271 nM and 670 nM and 907 nM |  |  |  |  | 876 nM | 600 nM and 1150 nM | 2150 nM | 1470 nM and 2830 nM |  |  |  |  |  | 
4 | COc1ccc(/C=C/c2ccc(-c3cnc(C)s3)s2)cc1 [TZ-34-43] | 134 nM |  | 351 nM |  | 854 nM | 854 nM | 320 nM | 320 nM | 512 nM | 512 nM | 1260 nM | 1260 nM |  |  |  |  |  | 
5 | COc1ccc2nc(/C=C/c3ccnc(OC)c3)ccc2c1 [TZ-36-28-2T] | 51.8 nM | 37 nM and 40 nM and 87 nM and 66 nM and 29 nM | 136 nM | 98 nM and 105 nM and 226 nM and 174 nM and 76 nM | 715 nM | 715 nM | 268 nM | 268 nM | 34 nM |  | 82 nM | 82 nM | 0.03 µM | 0.013 µM |  |  |  | 
6 | COc1ccc2nc(/C=C/c3ccnc(Br)c3)ccc2c1 [TZ-36-36] | 152 nM | 128 nM and 175 nM | 396 nM | 335 nM and 457 nM |  |  |  |  |  |  |  |  |  |  | 0.396 µM | 0.152 µM | 0.335 µM and 0.457 µM | 0.128 µM and 0.175 µM
